Results on two substances are retold here after publication PMC4319893, “Targeting Protein-Protein Interactions with Trimeric Ligands: High Affinity Inhibitors of the MAGUK Protein Family” (PLoS ONE, 2015).

In one test the test system is single PDZ3 domain. Further details: method as in PMID 21653701. The note with it: observed previously; cited from earlier work.
The next test concerns the target T1, FL PSD-95 (I195W) (Homo sapiens, UniProt P78352, I195W).
T1 construct: PSD-95 FL: 61-end; made in house; host or cells: E. coli (pET32m3C vector; QuickChange mutagenesis)
Description: Stopped-flow spectrometry binding kinetics, FL PSD-95 I195W. The note with it: 50 mM potassium phosphate pH 7.5, 10°C.

The target in a further test is T2, PSD-95 PDZ1-2-3 (Homo sapiens, UniProt P78352).
T2 construct: 7xHis; made in house; host or cells: E. coli BL21(DE3)pLysS
The test can be described thus: Fluorescence polarization (FP) binding assay, PSD-95 PDZ1-2-3. A general note: Polarisation of emitted light reports the rotation of a fluorescent probe.

The target of the next test is T3, FL PSD-95 wild-type (Homo sapiens, UniProt P78352).
T3 construct: PSD-95 FL: 61-end; made in house; host or cells: E. coli (pET32m3C vector; construct donated by M. Zhang)
The test can be described thus: Stopped-flow spectrometry binding kinetics, FL PSD-95 wild-type. The settings on record: 50 mM potassium phosphate pH 7.5, 10°C.

For another test, the target named is T4, FL PSD-95 (I100W) (Homo sapiens, UniProt P78352, I100W).
T4 construct: PSD-95 FL: 61-end; made in house; host or cells: E. coli (pET32m3C vector; QuickChange mutagenesis)
The test can be described thus: Stopped-flow spectrometry binding kinetics, FL PSD-95 I100W. The settings on record: 50 mM potassium phosphate pH 7.5, 10°C.

The next test concerns the target PSD-95 PDZ1-2 (Homo sapiens, UniProt P78352). The settings on record: FP.

A value given as a limit tells only on which side of the number the result lay.

Description for FL PSD-95 (I100W): (§1) Kinetic experiments using stopped-flow were carried out under the conditions used previously,[37, 38] namely in 50 mM potassium phosphate, pH 7.5 at 10°C. The change in fluorescence upon binding was monitored with a 330 nm band-pass filter following excitation at 280 nm. […] Regarding the fluorophores and the observed changes in fluorescence, several events contribute to the observed signal. […] This could be either through FRET or by absorbing excitation light. Both fluorophores are also themselves excited at 280 nm (less) and 330 nm (more) and their intrinsic fluorescence may change on binding to the proteins.
(§2) This observed rate constant might be the average of the two k obs values observed upon excitation at 280 nm/emission at 330 nm.
Description for FL PSD-95 (I195W): as §1, §2
Description for FL PSD-95 wild-type: as §1, §2
Description for PSD-95 PDZ1-2-3: The monomeric FP assay was conducted as previously described except that the proteins were diluted in 50 mM TRIS, 100 mM NaCl, 1 mM ethylenediaminetetraacetate (EDTA), 1 mM DTT.[34] The monomeric probe was only used when monomeric binding to PSD95 PDZ1-2 and PSD95 PDZ1-2-3 was evaluated, whereas 18 was used as probe for evaluating the binding of the dimeric and trimeric ligands. […] In all of the experiments a blank (buffer) and a reference sample (0.5 nM probe in buffer) were used. A total of 30 μl was pipetted into the wells of a 384 flat black bottom well plate. The FP was measured on a Tecan Safire 2 microplate reader (Tecan Group LTD., Männedorf, Germany). The absorption/emission wavelengths were set to 635/670 nm, corresponding to the Cy5 spectra. The obtained IC50 values were converted to K i values using the equations described by Nikolovska-Coleska et al.[35] […] Consequently, the Ki-value will become negative when the difference between the IC50-value and the Kd is too great.[35, 36]

Turning to “dansyl-1: N-terminally dansylated CRIPT hexapeptide YKQTSV”, in the test with single PDZ3 domain, the “observed rate constant dansyl-1/PDZ3” value is 1.6 s⁻¹.

As for YKQTSV [Compound 1], the “kon app, PSD-95 FL I195W” value on FL PSD-95 (I195W) came to 6.3e+06 ± 130000 M⁻¹ s⁻¹. Also, the “fold lower affinity compared to trimeric ligand 17, PDZ1-2-3” value at PSD-95 PDZ1-2-3 is on record as more than 1000 fold. In addition, on FL PSD-95 wild-type, the “kon app, PSD-95 wild-type” value is 6e+06 ± 100000 M⁻¹ s⁻¹. For the same substance, the “kon app, PSD-95 FL I100W” value at FL PSD-95 (I100W) was 6.3e+06 ± 190000 M⁻¹ s⁻¹. Moreover, at PSD-95 PDZ1-2, the “fold lower affinity compared to trimeric ligand 17, PDZ1-2” value was more than 1000 fold.
